Assay results as given in US10858357B2, “Water-soluble myosin 2 inhibitors for the treatment of neurological, neuropathic or psychiatric diseases” (PARIS SCIENCES ET LETTRES-QUARTIER LATIN, priority 2016, dated 2020).
pEC50: −log10 of the molar value. Values after ≈ are worked out from the molar mass of the structure shown. Read-outs that look alike come from different tables or passages of the source.

Key:
[1] = Photostability under 480±10 nm irradiation; format: physicochemical; details: 5 μM, 480±10 nm for 0, 5, 10 and 15 minutes
Method: Fluorescence emission spectra (λexc=350 nm) were recorded in assay buffer containing 0.1% DMSO applying the inhibitors at 5 μM concentrations. The photoconversion measurements were carried out using 5 μM neurelaxin-A in assay buffer and irradiating the samples at 480±10 nm for 0, 5, 10 and 15 minutes using a Fluorescence Spectrometer (F900, Edinburgh Instruments) equipped with a 450 W Xenon Lamp. Their absorbance spectra were measured at each time point.
Neurelaxin-A's photostability was measured by irradiating the compound in assay buffer at 480±10 nm for 0, 5, 10 and 15 minutes and recorded the absorption spectra afterwards (FIG. 2C).

[2] = system: zebrafish skeletal muscle; assay: Zebrafish fast escape response (C-start), maximal angular velocity; format: in vivo, zebrafish (Danio rerio); details: 6 dpf zebrafish
Method: (§1) For the fast escape response experiments, 6 dpf larvae were placed in 50 μl drops on a plastic plate. They were treated with 0, 2, 5, 10 or 20 μM of neurelaxin-A. To evoke C-start response, acoustic stimuli were applied according to the following protocol: 10 taps were carried out with 1 minute intervals every hour for 4 hours. The force of tapping was standardized. Images were recorded with Ximea Camera (MQ003MG-CM) at 500 fps for 2 s. Data were analyzed by Flote software version 2.1 and maximal angular velocity parameters of C-start reflex were quantified. For the experiments investigating the effect of the inhibitor on the heart muscle of zebrafish, 6 dpf larvae were embedded in 1% agarose and kept in E3 in the presence of 20 μM neurelaxin-A. Videos were taken by a camera at 15.1 fps before and after inhibitor treatment every hour for 3 hours.
Transgenic Tg(−8.0cldnb:lynEGFP)^zf106 (cldnb:gfp) (Haas, P. & Gilmour, D., Developmental Cell 10, 2006, pp 673-680) zebrafish (Danio rerio) were maintained in the animal facility of Eötvös Loránd University. […]
The relative rate of in vivo skeletal muscle contraction was quantified based on the velocity of the rotating heads of the animals have been quantified (maximal angular velocity) in the absence and in the presence of neurelaxin-A (2 μM), monitored for 4 hours.

[3] = Water solubility and solution stability in assay buffer; format: physicochemical; details: for solution stability at saturation concentration: 0.1 or 1 vol/vol % DMSO in assay buffer; for solubility: pH 7.3, aqueous buffer, kinetic from dmso stock, read-out: saturation concentration (solubility)
Method: The solubility and the solution stability of neurelaxin-A, were measured in 0.1 and 1 vol/vol % DMSO at room temperature.
500 μM inhibitor solutions were prepared in assay buffer (40 mM NaCl, 4 mM MgCl2, 20 mM HEPES pH 7.3) containing 0.1 or 1 vol/vol % DMSO.
After 0, 5, 25, 60 and 240 minutes, the samples were centrifuged for 1 minute. Absorption spectra of the supernatants were recorded and the concentrations of the dissolved inhibitors were determined using the extinction coefficient ε^o427=6860 M^−1cm^−1 (FIG. 2A).

zebrafish heart muscle = assay: Zebrafish heart rate and amplitude of heart muscle contraction; format: in vivo, zebrafish (Danio rerio); details: 20 μM, within three hours, 6 dpf zebrafish
Method: as §1
Transgenic Tg(−8.0cldnb:lynEGFP)^zf106 (cldnb:gfp) (Haas, P. & Gilmour, D., Developmental Cell 10, 2006, pp 673-680) zebrafish (Danio rerio) were maintained in the animal facility of Eötvös Loránd University. For the experiments investigating the skeletal and heart muscle of zebrafish, 6 dpf embryos were used. […]
Heart beating and the amplitude of heart muscle contraction were monitored before and after the addition of 20 μM of neurelaxin-A to the zebrafish, imaging the same embryos every hour for three hours.

[4] = system: EGFP-α-tubulin H2B-mCherry HeLa Kyoto cells; assay: HeLa cell toxicity, 12-hour confocal time-lapse imaging; format: cell-based, human; details: 50 μM, 12 hours imaging
Method: For phototoxicity experiments, confocal time-lapse imaging of HeLa Kyoto H2B-mCherry eGFP-α-tubulin cells for 12 hours was performed in DMEM further supplemented with 25 mM HEPES in order to achieve CO2 independent media. Confocal time-lapse imaging was performed on a Zeiss LSM 710 using a Plan Apo 20×/0.8 objective, with the following parameters: 2% laser intensity at λexc=488 nm, 3% laser intensity at λexc=543 nm, 1.2× zoom, average 4, line step 1, 1000×1000 pixels, 0.35 μm pixel size, 0.65 μs dwell time, 3 slice/z-stack with 7 μm between slices at every 10 minutes.
To test the cytotoxicity of neurelaxin-A in live-cell fluorescence microscopy, time-lapse EGFP-α-tubulin H2B-mCherry labeled HeLa Kyoto cells were imaged in a confocal microscope (FIG. 4a).
Cells were treated with 50 μM neurelaxin-A and imaged for 12 hours applying 3 z-sections every 10 minutes.

[5] = system: embryonic mouse hippocampal cells; assay: Neurite growth in embryonic hippocampal cell culture; format: cell-based; details: 50 μM
Method: Embryonic mouse hippocampal cells were isolated from 17-day-old embryo and cultured on poly-D-lysine coated dish in neurobasal medium complemented with B27, FCS and glutamax for 20 hours.
The growth of neurites was monitored by phase contrast microscopy after the addition of 50 μM neurelaxin-A (Imaging buffer: Extracell isotonic salt solution, buffered with 5 mM HEPES).

spinal cord injury = assay: Spinal cord complete section, BBB locomotor scoring; format: in vivo, rat; details: 10 mM in 10% DMSO/90% aCSF at injury site; from day 7; non-treated stays under 3
Method: In this experiment, a complete section of the spinal cord on animals was carried out. Then, neurelaxin A administration was carried out at the injury site, 5-10 min after the injury was performed. This neurelaxin-A administration was carried out via a diluted solution of 10 mM of neurelaxin A in a 10% DMSO/90% aCSF (artificial cerebrospinal fluid) solution, leading to an orange bright precipitate that is slowly soluble into the injury site. Finally, a BBB (Basso, Beattie and Bresnahan) analysis is performed in order to study the sequence of functional locomotor recovery patterns. The scale (0-21) represents sequential recovery stages and categorizes combinations of rat joint movement, hindlimb movements, stepping, forelimb and hind limbcoordination, trunk position and stability, paw placement and tail position.
According to this test, any drug treatment which may increase the BBB scores may be considered neuroprotective in animal models.
In this experiment, treated animals (n=3) were undistinguishable from non-treated animals (n=3). The BBB scoring scale ranges from 0 to 21.

[6] = system: cannabinoid-induced working memory loss; assay: Novel object recognition (NOR) test with CP55,940; format: in vivo
Method: In this experiment, a novel object recognition (NOR) test was performed.
In this test animals are presented to two objects and it will explore them for a while. After, one of the objects is changed for a new and different one. Under normal circumstances animals will be attracted to the novel object and will spend more time exploring it, by comparison to the older and already known object. Animals with memory deficit will explore both objects equally.
The synthetic cannabinoid CB1R agonist CP55,940 is administrated 1 hour prior to the familiarization step. Thirty minutes prior to the familiarization animals are either treated or not with neurelaxin-A.

With `Cc1ccc2c(c1)C(=O)C1(O)CCN(c3ccc(N)cc3)C1=N2` (centres unmarked) [Neurelaxin-A, 1-(4-aminophenyl)-3a-hydroxy-6-methyl-3,3a-dihydro-1H-pyrrolo[2,3-b]quinolin-4(2H)-one] the “photostability: absorption spectrum after irradiation” value [1] was “has not been altered”, the “time of half inhibition of maximal angular velocity” value ([2]; 2 μM) was 3.2 h and the pEC50 ([2]; Danio rerio, C-start, monitored for 4 hours, read-out: EC50 for the inhibition of the maximal angular velocity) was over 5.70. The “solution stability at saturation concentration” value [3] was “remained constant for 4 hours”, the “solution stability at saturation concentration” value ([3]; listed as neurelaxin-A) was “stable for several days” and the solubility ([3]; assay buffer with 0.1 vol/vol % DMSO, 0.1 vol/vol % DMSO in assay buffer pH 7.3, room temperature) was about 298 µM (≈ 91.6 µg/mL). The solubility ([3]; assay buffer with 1 vol/vol % DMSO, 1 vol/vol % DMSO in assay buffer pH 7.3, room temperature) was about 426 µM (≈ 131 µg/mL), the “amplitude of heart muscle contraction” value (zebrafish heart muscle) was “dropped drastically” and the “signs of toxicity in HeLa Kyoto cells” value [4] was “did not show any signs of toxicity”. For the same molecule, the “rate of neurite growth” value [5] was 1 μm/min, the “rate of neurite growth” value ([5]; listed as neurelaxin-A) was “approximately 1 μm/min” and the BBB scoring (spinal cord injury) was “significant increasing of BBB scoring”. The “NOR test: effect on memory without cannabinoid” value ([6]; animals non-treated with CP55,940) was “does not impact negatively the memory” and the “NOR test: memory after cannabinoid exposure” value ([6]; pre-treated animals, CP55,940 exposure) was “are not affected by the cannabinoid exposure”.
